From PMC10492809, “A Bischler-Napieralski and homo-Mannich sequence enables diversified syntheses of sarpagine alkaloids and analogues” (Nature Communications, 2023) come the findings set out here.

Holding throughout (assay type): cell-based
The test system of one series is MIA PaCa-2. Briefly: MTT cell viability assay, MIA PaCa-2. The procedure: (§1) All cell lines were cultured at 37 °C with 5% CO2 in a humidified incubator. HeLa cells were grown in MEM (Gibco) supplemented with 10% fetal bovine serum (FBS, Hyclone) and 1% penicillin/streptomycin (Gibco). MIA PaCa-2, MDA-MB-231, A549, MCF-7, A375 and BEAS-2B cells were grown in DMEM (Gibco) supplemented with 10% FBS and 1% penicillin/streptomycin. CT26, and HCT116 cells were grown in RPMI-1640 supplemented with 10% FBS and 1% penicillin/streptomycin. All cell lines were purchased from the National Collection of Authenticated Cell Cultures (China).
(§2) The antiproliferative activities of the prepared compounds against tested cell lines were evaluated using a standard (MTT)-based colorimetric assay. Cells were plated at a density of 3000 cells/well in 96-well plates and allowed to adhere overnight. Then cells were treated with varying concentrations of synthesized compounds for 72 h. At the end of treatment, 20 μL of thiazolyl blue tetrazolium bromide (MTT) solution (5 mg/mL) was added to each well. Cells were incubated for an additional 4 h at 37 °C and then the medium was removed and replaced with 200 μL of DMSO. The absorbance (OD490) was read on a microplate reader (SpectraMax i3x, Molecular Devices, US). In all experiments, three replicate wells were used for each drug concentration. Each assay was performed at least three times. The IC50 values were calculated by GraphPad Prism 9, which were the mean values derived from three independent experiments.

A further series has as its system A549. Briefly: MTT cell viability assay, A549. How it is done:
as §1, §2
(In general: Tetrazolium dyes change colour on reduction, which living cells bring about.)

A further series relates to HCT 116. Briefly: MTT cell viability assay, HCT 116. The procedure: as §1, §2
A short description of series [1]: MTT cytotoxicity towards normal cells, BEAS-2B. Particulars: human. The procedure: as §1, §2
Series [2] has as its system MDA-MB-231 cells. The series can be described thus: Measurement of lipid (BODIPY-C11) and cytosolic (DCFH-DA) ROS. Particulars: 12 h; suppressed by Fer-1 (10 μM). How it is done:
Lipid ROS was analyzed by flow cytometry: cells were plated at a density of 2 × 10^5 cells/well in 6-well plates. After treatment as indicated, cells were stained with 5 μM BODIPY-C11 dye (diluted in serum-containing DMEM) for 30 min at 37 °C in an incubator. For cytosolic ROS, cells were stained with 10 μM DCF (diluted in serum-free DMEM). Following staining, cells were pelleted and resuspended in 1 mL of PBS. Fluorescence intensity was measured by the analytical flow cytometry (CytoFLEX, […], US). A minimum of 10,000 cells were analyzed for each condition. Data analysis was performed using the FlowJo 7.6.1 software. The starting cell population gating by Forward Scatter and Side Scatter was used to make sure doublet exclusion. Only single cell was used for analysis.

For series [3], the system named is MDA-MB-231 cells. Briefly: Transmission electron microscopy of cell morphology. The note with it: 15ai 4 μM, 24 h. The procedure:
Cells were plated at a density of 6 × 10^5 cells/dish in 10 cm culture dishes and allowed to adhere overnight. Then cells were treated with DMSO or compound 15ai for 24 h. Cells were fixed with 2.5% glutaraldehyde in […] phosphate buffer, followed by 1% OsO4 for 2 h. After dehydration, cells were embedded in epoxy resin. The ultrathin sections were made by an ultramicrotome and then stained with lead citrate and uranyl acetate. Images were acquired using the transmission electron microscope (Hitachi H-7650 100kv, Hitachi, Japan). Each experiment was repeated three times independently with similar results.

In a further series the test system is GPX4. The series can be described thus: Western blotting, GPX4 protein expression. Particulars: 15ai 0, 2, 4 and 8 μM, 24 h. The procedure: Cells on 6-well plates were rinsed twice with cold PBS and lysed in RIPA lysis buffer (50 mM Tris (pH 7.4), 150 mM NaCl, 1% Triton X-100, 1% deoxycholicphenyl methylsulfonyl fluoride, 5.0 mM sodium pyrophosphate, […] leupeptin, 0.1 mM phenylmethylsulfonyl fluoride, and1 mM DTT) containing a protease inhibitor (PMSF) mixture at 1:100 dilution on ice for 30 min. The insoluble components of cell lysates were removed by centrifugation (4 °C, 12000 × g, 10 min), and protein concentrations were measured using a Pierce BCA protein assay kit. Proteins were separated by sodium dodecyl sulfate-polyacrylamide gel electrophoresis (SDS-PAGE) and transferred onto polyvinylidene difluoride (PVDF) membranes. Membranes were blocked using 5% skim milk in TBST and then incubated with diluted indicated primary antibodies: anti-GPX4 (1:1000 dilution, Proteintech, Cat No: 30388-1-AP), anti-SLC7A11 (1:1000 dilution, ABclonal, Cat No: A13685), anti-GAPDH (1:1000 dilution, Wanlei, Cat No: WL01114) at 4 °C with gentle shaking overnight. After washing five times (5 min each) with TBST, membranes were incubated with the HRP conjugated goat anti rabbit IgG (H + L) (1:5000 dilution, Wanlei, Cat No: WLA023) for 1 h at rt. Immunoreactive bands were visualized using an ECL detection kit (Wanlei, Cat No: WLA006) following the manufacturer’s instruction on the ChemiDoc system (BioRad, Shanghai, China).
(In general: A western blot detects proteins with antibodies after separation by electrophoresis.)

“And” between values parts separate entries of the source, which are not always exact repeats. Equal entries are not always repeated. Where two headings read alike, the source gives them in different places.

The term IC50 denotes the concentration that gives 50% inhibition. The CC50 is the concentration that lowers cell viability or growth by half. A lower CC50 goes with harm at low concentration. Turning to `C=C=C1CN2[C@H]3C[C@H]1[C@H](C=O)[C@@H]2Cc1c3n(S(=O)(=O)c2ccc(C)cc2)c2ccc(Cl)cc12` [Compound 15ai], the IC50 is 8.32 µM in the series on MIA PaCa-2 (Homo sapiens, MIA PaCa-2, 72 h, MTT, 72 h, mean of at least three independent experiments, read-out: IC50 MIA PaCa-2); 7.92 µM in the series on MIA PaCa-2 (Homo sapiens, MIA PaCa-2, source data sheet, single values of three experiments, read-out: MTT IC50 MIA PaCa-2); 10 µM and 7.05 µM in the series with MIA PaCa-2 (source data sheet, single values of three experiments, read-out: MTT IC50 MIA PaCa-2); 13 µM in the series on A549 (Homo sapiens, A549, 72 h, MTT, 72 h, mean of at least three independent experiments, read-out: IC50 A549); 14.6 µM with A549 (Homo sapiens, A549, source data sheet, single values of three experiments, read-out: MTT IC50 A549); 12.5 µM and 11.8 µM in the series with A549 (source data sheet, single values of three experiments, read-out: MTT IC50 A549). The IC50 is 4.78 µM in the series with HCT 116 (Homo sapiens, HCT-116, 72 h, MTT, 72 h, mean of at least three independent experiments, read-out: IC50 HCT 116); 6.28 µM in the series on HCT 116 (Homo sapiens, HCT-116, source data sheet, single values of three experiments, read-out: MTT IC50 HCT-116); 3.83 µM and 4.24 µM in the series with HCT 116 (source data sheet, single values of three experiments, read-out: MTT IC50 HCT-116). Also, the IC50 at 72 h in series [1] (BEAS-2B lung epithelial cells (normal cells), source data sheet, single values of three experiments) is > 100 µM. Further, the CC50 at 72 h in series [1] (BEAS-2B lung epithelial cells, MTT, 72 h, cytotoxicity towards normal cells, mean of at least three independent experiments) was > 100 µM. Besides, the “lipid ROS and cytosolic ROS accumulation” value in the series on MDA-MB-231 cells [2] is “induce lipid ROS and cytosolic ROS accumulation significantly”. In addition, in the series with MDA-MB-231 cells [3], the “cell morphology by TEM” value is given as “mitochondrial swelling occurred”. Moreover, in the series on GPX4, the “protein level of GPX4” value is “did not affect the protein level of GPX4”.
